Data: ChEMBL document CHEMBL3301361, “Experimental in vitro DMPK and physicochemical data on a set of publicly disclosed compounds”

Assays:
[1] = in vitro; conditions: mouse, plasma
[2] = in vitro; conditions: human, plasma
[3] = in vitro; conditions: SD, HW or BN, rat, plasma
[4] = in vitro; conditions: hepatocytes
[5] = physchem; conditions: octan-1-ol/water
[6] = in vitro; conditions: human, hepatocytes
[7] = in vitro; conditions: human

fraction unbound at 5 h [1] | fraction unbound at 5 h ([2]; PPB) | fraction unbound at 5 h [3] | hepatocyte CLint [4] | logD ([5]; pH 7.4, LogD7.4) | hepatocyte CLint [6] | microsomal CLint ([7]; liver microsomes) | microsomal CLint ([7]; microsomes) | SMILES | logD ([5]; pH 7.4) | fraction unbound at 5 h [2]
0.0139 | 0.0149 | 0.0119 | – | – | – | – | – | CCOc1cc(CN2CCC(NC(=O)c3cncc(C)c3)CC2)cc(OCC)c1-c1ccc(F)cc1 | – | –
0.17 | 0.289 | 0.262 | – | 2.7 | – | – | – | CS(=O)(=O)N1CCC(NC(=O)NC23CC4CC(CC(C4)C2)C3)CC1 | – | –
0.0149 | 0.0079 | 0.0313 | – | 3.8 | – | – | – | Cc1ncccc1Oc1ncnc(OC2CCN(C(=O)OC(C)C)CC2)c1C | – | –
0.0139 | 0.03 | 0.0328 | – | – | – | – | – | CC(C)(C)OC(=O)NC[C@H]1CC[C@H](CNC(=O)c2cc(N3CCC(CCN4CC(O)C4)CC3)nc3ccccc23)CC1 | – | –
0.0039 | 0.0139 | 0.0133 | – | – | – | – | – | CN(C)CCC1CCN(c2cc(C(=O)NC[C@H]3CC[C@H](CNC(=O)OCC(C)(C)C)CC3)c3ccccc3n2)CC1 | – | –
0.03 | 0.0268 | 0.0055 | – | 2.4 | < 3 µL/min/1e6 cells | – | – | O=C(Nc1ccc(N2CCNCC2)cc1)c1ccc(-c2ccc(Cl)cc2)o1 | – | –
0.0088 | 0.0014 | 0.0014 | – | 2 | – | – | – | Cc1nccc(-c2ccc(-c3nc4ccncc4c(O)c3C#N)cc2)c1Cl | – | –
0.04 | 0.04 | 0.0447 | – | – | – | – | – | COc1ccc2cc(S(=O)(=O)N[C@H](CC(=O)N[C@H](Cc3ccc(CN4[C@H](C)CCC[C@@H]4C)cc3)C(=O)N(C)C(C)C)c3ccc4c(c3)OCO4)ccc2c1 | – | –
0.0335 | 0.0437 | 0.0437 | – | – | – | – | – | Cc1nccn1-c1sc(Nc2cnccn2)nc1-c1cccc(C#N)c1 | – | –
0.262 | 0.0988 | 0.319 | – | – | – | – | – | c1ccc([C@@H]([C@H](c2ccccc2)N2CCCCC2)N2CCCCC2)cc1 | – | –
0.349 | 0.201 | – | – | 3.4 | 7.24 µL/min/1e6 cells | – | – | CO[C@H]1CC[C@]2(CC1)Cc1ccc(OCC(C)C)cc1C21N=C(C)C(N)=N1 (some centres undefined) | – | –
0.0209 | 0.139 | 0.0661 | – | 3.4 | – | – | – | CO[C@H]1CC[C@]2(CC1)Cc1ccc(-c3cncc(Br)c3)cc1C21N=C(C)C(N)=N1 (some centres undefined) | – | –
0.0022 | – | – | – | – | 60.3 µL/min/1e6 cells | – | – | Cc1cccc(-c2ccc(CNC(=O)CCCc3ccc4cccnc4n3)cc2)c1 | – | –
0.0043 | 0.0008 | – | – | – | 24.6 µL/min/1e6 cells | – | – | FC(F)(F)Oc1ccc(-c2nnc(CCCCc3ccc4cccnc4n3)o2)cc1Cl | – | –
0.0095 | 0.0063 | 0.0081 | – | – | – | – | – | O=C1COc2nccc(-c3ccccc3F)c2CN1Cc1cc(C(F)(F)F)cc(C(F)(F)F)c1 | – | –
0.03 | 0.0268 | 0.0171 | – | – | – | – | – | CC1=C(C(=O)OCc2ccccc2)C(c2cccs2)NC(=O)N1 (centres undefined) | – | –
0.154 | 0.19 | 0.22 | – | 2.5 | – | > 150 µL/min/mg | – | Cc1cc(N2CCC[C@@H]2C(=O)NCCc2ccc3c(c2)OCO3)nc(-n2ccnc2)n1 | – | –
0.0099 | 0.0034 | 0.0051 | – | – | – | – | – | COC(=O)N[C@@H](C)C#Cc1cnc(Oc2ccc(OC(C)C)cc2)s1 | – | –

fraction unbound at 5 h [1] | fraction unbound at 5 h ([2]; PPB) | fraction unbound at 5 h [3] | hepatocyte CLint [4] | logD ([5]; pH 7.4, LogD7.4) | hepatocyte CLint [6] | microsomal CLint ([7]; liver microsomes) | microsomal CLint ([7]; microsomes) | SMILES | logD ([5]; pH 7.4) | fraction unbound at 5 h [2]
0.0661 | 0.0909 | 0.0594 | – | – | – | – | – | CC(O)(C(=O)Nc1cccc(S(=O)(=O)c2ccccc2)c1)C(F)(F)F (centres undefined) | – | –
0.0313 | 0.0358 | 0.0313 | – | – | – | – | – | O=C1CCc2cc(-c3cncc4ccccc34)ccc2N1 | – | –
0.0033 | 0.0009 | 0.0801 | – | – | – | – | – | O=C(Nc1ccc(CN2CCNCC2)cc1-c1nc2ccccc2[nH]1)c1cnc2ccccc2n1 | – | –
0.19 | 0.16 | 0.201 | – | 3.3 | – | – | – | c1ccc2[nH]c(CCc3nc4ccccc4[nH]3)nc2c1 | – | –
0.0661 | 0.0262 | 0.0428 | – | – | – | – | – | c1ccc2c(c1)CC(N1CCN(c3cccc4c3OCCO4)CC1)C2 | – | –
0.0063 | – | – | 52.5 µL/min/1e6 cells | – | – | < 3 µL/min/mg | – | N#Cc1c(O)c2c(-c3ccc(-c4ccccc4O)cc3)csc2[nH]c1=O | – | –
0.0736 | 0.0209 | 0.0836 | – | – | – | – | – | Cc1ncsc1C(=O)N(Cc1cc(=O)[nH]c2c(F)cccc12)c1cccc(Cl)c1 | – | –
0.0111 | 0.0074 | 0.0106 | – | – | 12 µL/min/1e6 cells | – | – | CC(C)[C@H](C(=O)Nc1nccs1)c1ccc(Cl)cc1 | – | –
0.0059 | 0.0055 | 0.0061 | – | – | – | – | – | CS(=O)(=O)Nc1ccc2[nH]c(Cc3ccc(Oc4ccccc4)cc3)nc2c1 | – | –
0.0019 | 0.0017 | 0.0015 | – | – | – | – | – | COc1ccc(Cl)cc1C1(F)C(=O)Nc2cc(C(F)(F)F)ccc21 (centres undefined) | – | –
0.0007 | 0.0752 | 0.0007 | 26.9 µL/min/1e6 cells | 2.51 | – | – | 97.7 µL/min/mg | CCOc1ncc(C)c2c1[C@H](c1ccc(C#N)cc1OC)C(C(N)=O)=C(C)N2 [FINERENONE] | – | –
0.0069 | 0.0009 | 0.0021 | – | – | – | – | – | Cc1cnc(C(=O)c2ncnc3[nH]ccc23)c(NS(=O)(=O)c2ccc(Cl)c(C(F)(F)F)c2)c1 [ILACIRNON] | – | –
0.179 | 0.004 | 0.101 | – | – | – | – | – | O=C1N(c2ccccc2)c2ccccc2C1(Cc1ccncc1)Cc1ccncc1 [LINOPIRDINE] | – | –
0.016 | 0.0606 | 0.0366 | – | 2.9 | – | – | – | CC(C)(F)C[C@H](N[C@@H](c1ccc(-c2ccc(S(C)(=O)=O)cc2)cc1)C(F)(F)F)C(=O)NC1(C#N)CC1 [ODANACATIB] | – | –
0.262 | 0.232 | 0.19 | – | – | 25.1 µL/min/1e6 cells | – | – | C[C@@H]1CN(C(=O)[C@@H]2CN(C(C)(C)C)C[C@H]2c2ccc(F)cc2F)C[C@H](C)[C@@]1(O)c1ccccc1 [PF-00446687] | – | –
0.0268 | 0.0149 | 0.0149 | 42.7 µL/min/1e6 cells | – | < 3 µL/min/1e6 cells | < 3 µL/min/mg | – | CC1(CCCc2cc(=O)oc3[nH]c(=O)[nH]c(=O)c23)CC1 [SCH-900271] | – | –
0.711 | 0.768 | 0.78 | – | 0.31 | – | – | – | N[C@@H](CC(=O)N1CCn2c(nnc2C(F)(F)F)C1)Cc1cc(F)c(F)cc1F [SITAGLIPTIN] | – | –

SMILES | fraction unbound at 5 h [1] | fraction unbound at 5 h ([2]; PPB) | fraction unbound at 5 h [3] | hepatocyte CLint [4] | logD ([5]; pH 7.4, LogD7.4) | hepatocyte CLint [6] | microsomal CLint ([7]; liver microsomes) | microsomal CLint ([7]; microsomes) | logD ([5]; pH 7.4) | fraction unbound at 5 h [2]
Cc1ccccc1-n1c(Cn2cnc3c(N)ncnc32)nc2cccc(C)c2c1=O | 0.0801 | – | 0.24 | 24 µL/min/1e6 cells | – | – | – | – | 2.6 | 0.0136
CC(C)NC[C@@H](O)COc1cccc2ccccc12 [DEXPROPRANOLOL] | 0.179 | – | 0.179 | – | – | – | – | – | – | 0.176
CCc1c(C(=O)C(N)=O)c2c(OCC(=O)OC)cccc2n1Cc1ccccc1 [VARESPLADIB METHYL] | 0.232 | – | – | – | – | 50.1 µL/min/1e6 cells | – | – | – | –
